Data reported in patent US11878966B2, “Substituted 4-benzyl and 4-benzoyl piperidine derivates” (89BIO LTD, priority 2015, dated 2024).

biological target: T1, recombinant human baculovirus-expressed GST-tagged FASN (Homo sapiens, UniProt P49327); assay: FASN enzyme activity assay: fluorescence-based detection of CoA with CPM; assay type: biochemical; settings: 5 nM FASN, 150 μM NADPH, 10 μM acetyl-CoA, 25 μM malonyl-CoA, 90 minutes incubation
T1 construct: GST; host or cells: baculovirus expression system (insect cells implied)
Source text: FASN Enzyme activity may be determined by detecting coenzyme A (CoA), a product of FASN-catalyzed synthesis of palmitate from acetyl-CoA and malonyl-CoA with NADPH as a cofactor. The assay is fluorescence-based and measures the interaction of free CoA with 7-diethylamino-3-(4′-malemimidylphenyl)-4-methylcoumarin (CPM; Life Technologies, CA) as described in Chung et al (2008). The coumarin derivative CPM contains a thiol-reactive maleimide that becomes fluorescent upon interaction with the sulfhydryl group of CoA.
For the example compounds described herein, the reaction was performed in 384-well low volume non-binding platews (Corning, NY) using recombinant human baculovirus-expressed GST-tagged FASN. The 20-μL assay mixture contained 50 mM HEPES (pH 7.5), 5 nM FASN, 150 μM NADPH (Sigma, St. Louis, MO), 10 μM acetyl-CoA (Sigma), 25 μM malonyl-CoA (Sigma) and test compound [diluted in dimethyl sulfoxide (DMSO); 0.5% DMSO final in assay after 100 nL addition]. See, Chung et al.; “A fluorescence-based thiol quantification assay for ultra-high-throughput screening for inhibitors of coenzyme A production,” Assay Drug Dev Tech 2008; 6:361-374.
The reaction was initiated by adding malonyl-CoA, followed by incubation for 90 minutes at […]. A stock solution of the CPM reagent was prepared in DMSO al 66 μM and stored at […]. To detect CoA produced in the FASN reaction, the CPM stock was diluted to 50 μM in 70% ethanol and added at 4 μL/well to the assay place. The reaction mixture was then incubated for 30 minutes. Fluorescence was measured using the EnVision™ 2102 multi-label plate reader (PerkinElmer, Waltham, MA) utilizing a general dual mirror, a 390 nm excitation filter and a 530 nm emission filter. Data analysis was performed using ActivityBase (IDBS, Guilford, UK). IC50 values were calculated by plotting the percent inhibition versus log 10 of the concentration of the compound, and fitting to the nonlinear regression sigmoidal dose-response (variable slope) equation in XLFit (IDBS).

T1 sequence (P49327 whole entry): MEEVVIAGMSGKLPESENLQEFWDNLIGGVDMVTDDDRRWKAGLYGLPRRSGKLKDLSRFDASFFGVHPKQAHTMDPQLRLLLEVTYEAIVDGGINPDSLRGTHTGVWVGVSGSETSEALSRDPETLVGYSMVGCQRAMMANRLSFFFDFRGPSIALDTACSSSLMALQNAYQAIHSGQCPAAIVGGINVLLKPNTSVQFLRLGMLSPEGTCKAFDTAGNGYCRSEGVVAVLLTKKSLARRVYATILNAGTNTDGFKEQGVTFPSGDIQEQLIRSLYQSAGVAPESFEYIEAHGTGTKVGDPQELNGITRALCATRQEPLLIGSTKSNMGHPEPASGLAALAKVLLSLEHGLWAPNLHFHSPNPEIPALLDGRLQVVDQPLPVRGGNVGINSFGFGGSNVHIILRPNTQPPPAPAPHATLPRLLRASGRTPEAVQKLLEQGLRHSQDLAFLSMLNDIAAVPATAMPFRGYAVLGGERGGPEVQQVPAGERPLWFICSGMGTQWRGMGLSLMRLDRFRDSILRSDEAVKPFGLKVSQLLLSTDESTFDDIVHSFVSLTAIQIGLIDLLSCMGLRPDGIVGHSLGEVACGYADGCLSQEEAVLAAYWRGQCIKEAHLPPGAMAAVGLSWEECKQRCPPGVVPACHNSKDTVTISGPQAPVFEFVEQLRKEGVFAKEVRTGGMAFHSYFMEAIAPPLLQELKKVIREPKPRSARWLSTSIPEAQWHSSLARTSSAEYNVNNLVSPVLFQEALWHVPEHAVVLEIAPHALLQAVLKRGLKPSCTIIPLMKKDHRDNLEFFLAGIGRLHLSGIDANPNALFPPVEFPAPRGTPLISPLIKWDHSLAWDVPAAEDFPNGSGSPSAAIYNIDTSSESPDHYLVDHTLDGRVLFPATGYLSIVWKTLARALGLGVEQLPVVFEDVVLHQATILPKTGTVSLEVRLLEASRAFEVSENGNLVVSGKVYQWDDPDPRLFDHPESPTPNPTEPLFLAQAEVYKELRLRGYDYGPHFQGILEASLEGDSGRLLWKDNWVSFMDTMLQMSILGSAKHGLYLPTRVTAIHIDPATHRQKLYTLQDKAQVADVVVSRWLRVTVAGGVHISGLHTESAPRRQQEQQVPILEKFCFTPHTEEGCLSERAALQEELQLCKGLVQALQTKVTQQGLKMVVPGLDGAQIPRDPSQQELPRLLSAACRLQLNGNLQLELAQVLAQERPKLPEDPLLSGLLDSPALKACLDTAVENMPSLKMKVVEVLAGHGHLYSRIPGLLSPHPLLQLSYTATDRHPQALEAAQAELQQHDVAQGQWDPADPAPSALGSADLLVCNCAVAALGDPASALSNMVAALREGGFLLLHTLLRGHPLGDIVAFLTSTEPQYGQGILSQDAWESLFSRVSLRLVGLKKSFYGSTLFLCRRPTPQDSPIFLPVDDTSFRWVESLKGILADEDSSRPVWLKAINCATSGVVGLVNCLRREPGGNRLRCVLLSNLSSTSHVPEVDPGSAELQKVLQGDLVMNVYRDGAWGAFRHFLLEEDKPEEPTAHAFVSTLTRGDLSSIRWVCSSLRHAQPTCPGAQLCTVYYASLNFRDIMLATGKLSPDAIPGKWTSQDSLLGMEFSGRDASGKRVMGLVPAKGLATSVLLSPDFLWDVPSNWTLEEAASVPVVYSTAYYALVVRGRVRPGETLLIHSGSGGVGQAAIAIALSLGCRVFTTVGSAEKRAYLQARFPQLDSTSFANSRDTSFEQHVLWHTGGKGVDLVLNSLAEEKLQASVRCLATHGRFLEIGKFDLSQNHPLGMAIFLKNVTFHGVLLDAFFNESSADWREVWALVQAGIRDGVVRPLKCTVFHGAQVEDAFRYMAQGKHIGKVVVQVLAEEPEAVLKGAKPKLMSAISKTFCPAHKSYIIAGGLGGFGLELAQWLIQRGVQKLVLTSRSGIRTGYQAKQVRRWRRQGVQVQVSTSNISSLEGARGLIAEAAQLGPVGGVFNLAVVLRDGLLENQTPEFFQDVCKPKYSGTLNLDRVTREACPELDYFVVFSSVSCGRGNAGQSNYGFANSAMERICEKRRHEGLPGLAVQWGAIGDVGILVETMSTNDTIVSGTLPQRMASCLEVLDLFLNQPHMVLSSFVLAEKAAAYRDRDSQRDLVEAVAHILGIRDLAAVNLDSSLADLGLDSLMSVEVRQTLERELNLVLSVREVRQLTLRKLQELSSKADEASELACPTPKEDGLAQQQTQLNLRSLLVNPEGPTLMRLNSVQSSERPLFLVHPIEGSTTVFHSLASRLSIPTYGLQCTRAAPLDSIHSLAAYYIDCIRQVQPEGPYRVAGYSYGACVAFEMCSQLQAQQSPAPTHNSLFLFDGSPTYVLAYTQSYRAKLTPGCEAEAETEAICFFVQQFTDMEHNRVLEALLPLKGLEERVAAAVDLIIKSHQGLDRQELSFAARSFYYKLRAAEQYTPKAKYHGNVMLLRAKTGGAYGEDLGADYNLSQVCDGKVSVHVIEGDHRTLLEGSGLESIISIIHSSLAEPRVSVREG

Structure (SMILES) | IC50 [nM]
Cc1c(-c2ccc(CC3=CCN(C(=O)[C@H]4CCCO4)CC3)cc2)ccc2cccnc12 [Example 200, (R)-(4-(4-(8-methylquinolin-7-yl)benzyl)-3,6-dihydropyridin-1(2H)-yl)(tetrahydrofuran-2-yl)methanone] | 1 to 99
O=C(C1CC1)N1CCC(F)(Cc2ccc(-c3cnc4ccccc4c3)cc2)CC1 [Example 171, Cyclopropyl(4-fluoro-4-(4-(quinolin-3-yl)benzyl)piperidin-1-yl)methanone] | 1 to 99
CCC(=O)N1CCC(F)(Cc2ccc(-c3ccc4cccnc4c3)cc2)CC1 [Example 163, 1-(4-fluoro-4-(4-(quinolin-7-yl)benzyl)piperidin-1-yl)propan-1-one] | 1 to 99
Cc1c(-c2ccc(C(OCCN3CCCC3)C3CCN(C(=O)[C@H]4CCCO4)CC3)cc2)ccc2cccnc12 (stereo partly drawn) [Example 89, {4-[[4-(8-Methylquinolin-7-yl)-phenyl]-(2-pyrrolidin-1-yl-ethoxy)-methyl]-piperidin-1-yl}-(R)-tetrahydrofuran-2-yl-methanone] | 1 to 99
CCC(=O)N1CCC(C(C)(O)c2ccc(-c3ccc4cccnc4c3)cc2)CC1 (stereo not shown) [Example 126, 1-{4-[1-Hydroxy-1-(4-quinolin-7-yl-phenyl)-ethyl]-piperidin-1-yl}-propan-1-one] | 100 to 999
O=C([C@H]1CCCO1)N1CCC(F)(Cc2ccc(-c3ccc4cccnc4c3)cc2)CC1 [Example 187, (R)-(4-fluoro-4-(4-(quinolin-7-yl)benzyl)piperidin-1-yl)(tetrahydrofuran-2-yl)methanone] | 1 to 99
O=C([C@H]1CCCO1)N1CC[C@@H](Cc2ccc(-c3cnc4ccccc4c3)cc2)[C@H](O)C1 [Example 224, [trans-3-Hydroxy-4-(4-quinolin-3-yl-benzyl)-piperidin-1-yl]-(R)-tetrahydrofuran-2-yl-methanone] | 1 to 99
CC(C)(c1ccc(-c2cnc3ccccc3c2)cc1)C1CCN(C(=O)[C@H]2CCCO2)CC1 [Example 203] | 1 to 99
CCC(=O)N1CCC(C(=NOC)c2ccc(-c3ccc4cccnc4c3)cc2)CC1 (racemic) [Example 50, 1-{4-[[Methoxyimino]-(4-quinolin-7-yl-phenyl)-methyl]-piperidin-1-yl}-propan-1-one] | 1 to 99
Cc1nccc2cc(-c3ccc(CC4CCN(C(=O)[C@H]5CCCO5)CC4)cc3)ccc12 [Example 37, {4-[4-(1-methylisoquinolin-6-yl)-benzyl]-piperidin-1-yl}-(R)-tetrahydro-furan-2-yl-methanone] | 1 to 99
Cc1c(-c2ccc(CC3=CCN(C(=O)C4CC4)CC3)cc2)ccc2cccnc12 [Example 184, Cyclopropyl(4-(4-(8-methylquinolin-7-yl)benzyl)-3,6-dihydropyridin-1(2H)-yl)methanone] | 100 to 999
CCC(=O)N1CCC(F)(C(O)c2ccc(-c3ccc4cccnc4c3C)cc2)CC1 (stereo not shown) [Example 223] | 1 to 99
CCC(=O)N1CCC(Cc2ccc(-c3ccc4nccn4c3C)cc2)CC1 [Example 94, 1-{4-[4-(5-Methylimidazo[1,2-a]pyridin-6-yl)-benzyl]-piperidin-1-yl}-propan-1-one] | 100 to 999

Continued, values first:

IC50 [nM] | Structure (SMILES)
1 to 99 | CC(C)C(=O)N1CCC(Cc2ccc(-c3cnc4ccccc4c3)cc2)CC1 [Example 2, 2-Methyl-1-[4-(4-quinolin-3-yl-benzyl)-piperidin-1-yl]-propan-1-one]
100 to 999 | CCC(=O)N1CC=C(Cc2ccc(-c3ccc4cccnc4c3)cc2)CC1 [Example 164, 1-(4-(4-(quinolin-7-yl)benzyl)-5,6-dihydropyridin-1(2H)-yl)propan-1-one]
1 to 99 | CCC(=O)N1CCC(C(F)c2ccc(-c3cnc4ccccc4c3)cc2)CC1 (stereo not shown) [Example 6, 1-{4-[Fluoro-(4-quinolin-3-yl-phenyl)-methyl]-piperidin-1-yl}-propan-1-one]
1 to 99 | CCC(=O)N1CCC(C(C)c2ccc(-c3cnc4ccccc4c3)cc2)CC1 (single isomer, unassigned) [Example 67, 1-{4-[1-(4-Quinolin-3-yl-phenyl)-ethyl]-piperidin-1-yl}-propan-1-one]
1000 to 10000 | c1cnc2ccc(-c3ccc(C4(C5CCN(C6CCOCC6)CC5)OCCO4)cc3)cc2c1 [Example 108, 6-(4-{2-[1-(Tetrahydropyran-4-yl)-piperidin-4-yl]-1,3-dioxolan-2-yl}-phenyl)-quinoline]
100 to 999 | O=C(C1CC1)N1CC=C(Cc2ccc(-c3ccc4cccnc4c3)cc2)CC1 [Example 174]
1 to 99 | Cc1c(-c2ccc(C(C)C3CCN(C(=O)[C@H]4CCCO4)CC3)cc2)ccc2cccnc12 (mixture of isomers) [Example 70, (4-{1-[4-(8-Methylquinolin-7-yl)-phenyl]-ethyl}-piperidin-1-yl)-(R)-tetrahydrofuran-2-yl-methanone]
100 to 999 | CCC(=O)N1CC[C@@H](Cc2ccc(-c3cnc4ccccc4c3)cc2)[C@H](O)C1 (relative stereo) [Example 218, 1-[trans-3-Hydroxy-4-(4-quinolin-3-yl-benzyl)-piperidin-1-yl]-propan-1-one]
1 to 99 | CCC(=O)N1CCC(Cc2ccc(-c3cnc4ccccc4c3)cc2)CC1 [Example 1, 1-[4-(4-Quinolin-3-yl-benzyl)-piperidin-1-yl]-propan-1-one]
1 to 99 | O=C([C@H]1CCCO1)N1CCC(Cc2ccc(-c3cnc4ccccc4c3)cc2)CC1 [Example 4]
100 to 999 | Cc1c(-c2ccc(C(F)(F)C3CCN(C(=O)C4CC4)CC3)cc2)cnc2ccccc12 [Example 10, Cyclopropyl-(4-{difluoro-[4-(4-methyl-quinolin-3-yl)-phenyl]-methyl}-piperidin-1-yl)-methanone]
1 to 99 | Cc1c(-c2ccc(CC3CCN(C(=O)C4(O)CC4)CC3)cc2)ccc2nccn12 [Example 96, (1-Hydroxycyclopropyl)-{4-[4-(5-methylimidazo[1,2-a]pyridin-6-yl)-benzyl]-piperidin-1-yl}-methanone]
1 to 99 | CC(c1ccc(-c2cnc3ccccc3c2Cl)cc1)C1CCN(C(=O)[C@H]2CCCO2)CC1 (mixture of isomers) [Example 77, (4-{1-[4-(4-Chloroquinolin-3-yl)-phenyl]-ethyl}-piperidin-1-yl)-(R)-tetrahydrofuran-2-yl-methanone]
1 to 99 | CCC(=O)N1CCC(Cc2ccc(-c3ccc4cccnc4c3Cl)cc2)CC1 [Example 29, 1-{4-[4-(8-Chloroquinolin-7-yl)-benzyl]-piperidin-1-yl}-propan-1-one]
1000 to 10000 | CC(C)C(=O)N1CCC(C(=O)c2ccc(-c3ccc4ncccc4c3)cc2)CC1 [Example 109, 2-Methyl-1-[4-(4-quinolin-6-yl-benzoyl)-piperidin-1-yl]-propan-1-one]
1 to 99 | Cc1c(-c2ccc(CC3(F)CCN(C(=O)[C@H]4CCCO4)CC3)cc2)ccc2nccn12 [Example 97, (R)-(4-fluoro-4-(4-(5-methylimidazo[1,2-a]pyridin-6-yl)benzyl)piperidin-1-yl)(tetrahydrofuran-2-yl)methanone]
1 to 99 | O=C(C1CC1)N1CCC(C(F)c2ccc(-c3cnc4ccccc4c3)cc2)CC1 (stereo not shown) [Example 7, Cyclopropyl-{4-[fluoro-(4-quinolin-3-yl-phenyl)-methyl]-piperidin-1-yl}-methanone]
1 to 99 | Cc1c(-c2ccc(CC3CCN(C(=O)N(C)C)CC3)cc2)ccc2cccnc12 [Example 233, N,N-dimethyl-4-[[4-(8-methyl-7-quinolyl)phenyl]methyl]piperidine-1-carboxamide]
